Literature values, collected in patent publication US20150315247A1, “High-affinity peptide-based anticancer vaccination to overcome tumor resistance to immunostimulatory antibodies and to identify TCRs that can be used successfully in adoptive T cell therapy” (priority 2014, published 2015).

Molecular target: T1, H-2K^b (mouse MHC) (Mus musculus, UniProt P01901)
T1 sequence (P01901 22-369): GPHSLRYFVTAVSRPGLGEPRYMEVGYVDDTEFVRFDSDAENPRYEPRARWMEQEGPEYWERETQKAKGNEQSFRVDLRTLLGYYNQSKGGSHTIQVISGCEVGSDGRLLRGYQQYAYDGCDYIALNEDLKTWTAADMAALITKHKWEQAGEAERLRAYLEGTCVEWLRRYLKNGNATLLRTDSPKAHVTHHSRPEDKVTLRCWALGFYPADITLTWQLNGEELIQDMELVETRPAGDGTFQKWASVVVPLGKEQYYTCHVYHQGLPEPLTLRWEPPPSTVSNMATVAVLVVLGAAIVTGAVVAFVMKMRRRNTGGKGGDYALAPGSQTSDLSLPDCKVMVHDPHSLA
T1 sequence (P01887 21-119 partner): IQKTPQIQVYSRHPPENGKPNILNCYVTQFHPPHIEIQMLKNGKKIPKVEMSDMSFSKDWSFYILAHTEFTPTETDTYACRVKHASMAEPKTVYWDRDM
Conditions: SIINFEKL peptide binding to H-2K^b; read-out: peptide-H-2K^b affinity IC50

In the case of SIINFEKL [SIINFEKL peptide], the IC50 is listed as 0.9 nM.
